We go through 54 compounds from US9370520B2, “Macrocyclic LRRK2 kinase inhibitors” (IPSEN PHARMA S.A.S., priority 2011, dated 2016).

As usually defined, the IC50 is the point on the concentration scale where inhibition reaches its midpoint. In general, melting point refers to the temperature of the solid-liquid transition.

T3 sequence (Q5S007 970-2527): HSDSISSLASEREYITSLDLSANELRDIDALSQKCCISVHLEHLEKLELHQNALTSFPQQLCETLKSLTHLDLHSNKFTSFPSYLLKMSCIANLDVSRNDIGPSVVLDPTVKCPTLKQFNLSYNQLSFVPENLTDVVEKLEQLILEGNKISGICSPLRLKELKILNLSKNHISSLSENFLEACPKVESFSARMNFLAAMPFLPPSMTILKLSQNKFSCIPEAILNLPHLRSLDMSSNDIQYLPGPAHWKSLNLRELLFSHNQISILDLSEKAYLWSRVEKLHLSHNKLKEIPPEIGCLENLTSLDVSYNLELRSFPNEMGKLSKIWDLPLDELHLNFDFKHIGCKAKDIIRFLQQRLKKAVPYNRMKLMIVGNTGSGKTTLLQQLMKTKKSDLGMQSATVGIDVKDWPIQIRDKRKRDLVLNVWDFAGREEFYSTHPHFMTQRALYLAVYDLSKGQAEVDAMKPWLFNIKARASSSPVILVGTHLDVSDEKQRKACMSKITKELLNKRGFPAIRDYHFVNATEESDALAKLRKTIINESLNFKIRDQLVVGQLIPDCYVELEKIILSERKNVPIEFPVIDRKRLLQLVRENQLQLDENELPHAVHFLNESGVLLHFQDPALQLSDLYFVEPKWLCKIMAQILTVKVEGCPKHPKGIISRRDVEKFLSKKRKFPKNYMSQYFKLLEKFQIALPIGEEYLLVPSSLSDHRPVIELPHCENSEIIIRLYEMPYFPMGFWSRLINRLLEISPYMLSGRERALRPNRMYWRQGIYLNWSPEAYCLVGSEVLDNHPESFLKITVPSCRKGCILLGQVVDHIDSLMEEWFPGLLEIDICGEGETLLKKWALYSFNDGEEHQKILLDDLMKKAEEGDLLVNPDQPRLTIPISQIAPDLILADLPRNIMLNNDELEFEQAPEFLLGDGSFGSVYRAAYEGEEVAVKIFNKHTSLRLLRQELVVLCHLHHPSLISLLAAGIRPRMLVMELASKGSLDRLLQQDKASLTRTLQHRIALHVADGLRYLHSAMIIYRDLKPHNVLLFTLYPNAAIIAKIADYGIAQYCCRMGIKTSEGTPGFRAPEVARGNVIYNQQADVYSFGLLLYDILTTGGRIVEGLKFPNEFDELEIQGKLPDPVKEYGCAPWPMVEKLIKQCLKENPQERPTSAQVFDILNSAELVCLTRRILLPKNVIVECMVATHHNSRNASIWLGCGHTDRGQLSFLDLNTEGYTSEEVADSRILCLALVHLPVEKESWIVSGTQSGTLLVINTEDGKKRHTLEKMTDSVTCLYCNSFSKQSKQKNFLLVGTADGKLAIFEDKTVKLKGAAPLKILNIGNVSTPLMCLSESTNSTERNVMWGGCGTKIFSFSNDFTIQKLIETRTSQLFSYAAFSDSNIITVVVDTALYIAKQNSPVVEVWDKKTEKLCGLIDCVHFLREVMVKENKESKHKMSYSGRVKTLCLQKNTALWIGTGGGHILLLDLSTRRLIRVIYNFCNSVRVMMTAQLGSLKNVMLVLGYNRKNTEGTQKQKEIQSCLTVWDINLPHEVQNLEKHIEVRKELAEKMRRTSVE
T1 sequence (Q5S007 970-2527): as above

The first data set has as its target T1, truncated LRRK2 (GST tagged LRRK2 of amino acids 970-2527) (Homo sapiens, UniProt Q5S007).
T1 construct: GST tagged LRRK2 of amino acids 970-2527; GST
The data set can be described thus: LRRKtide 32P-ATP peptide kinase assay (Protocol 1), truncated LRRK2. It counts as biochemical. The following applies: 10 μM ATP, 200 μM lrrktide. The protocol: (§1) The inhibition of LRRK2 and LRRK1 kinase was assessed using LRRK2 and LRRK1 recombinant protein in an in vitro peptide-based kinase assay.
(§2) LRRK2 protein is prepared as described in Daniëls et al. ((2011) J Neurochem 116, 304-315.). HEK293T cells are transfected with pCHMWS-3xflag-LRRK2 plasmid using polyethyleneimine and lysed after 48-72 hours in lysis buffer (Tris 20 mM pH 7.5, NaCl 150 mM, EDTA 1 mM, Triton 1%, Glycerol 10%, protease inhibitor cocktail). Lysates are cleared by centrifugation at 20,000 g for 10 minutes and incubated with normal mouse IgGs bound to agarose beads to remove proteins aspecifically binding to agarose or mouse IgGs. After removal of the IgG bead slurry, lysates are incubated for 3 to 18 hours with flagM2 bound to agarose beads. Beads are washed 4 times with wash buffer (Tris 25 mM pH 7.5, NaCl 400 mM, Triton 1%) and rinsed in kinase buffer (Tris-HCl 25 mM pH 7.5, 10 mM MgCl2, 2 mM dithiothreitol (DTT), 0.02% triton, 5 mM beta-glycerophosphate, 0.1 mM Na3VO4). Proteins are eluted in 5 volumes of kinase buffer containing 100 μg/ml 3xflag peptide. For assays using purified protein bound to affinity resin, affinity beads are resuspended in an equal volume of kinase buffer unless otherwise indicated. Purity and concentration are assessed by SDS-PAGE (3-8% tris-acetate SDS gel) and Coomassie Brilliant Blue staining or silver staining. Alternatively, a truncated LRRK2 enzyme (GST tagged LRRK2 of amino acids 970-2527) and a truncated LRRK2-G2019S (GST tagged LRRK2-G2019S of amino acids 970-2527) are used.
(§3) For Irrktide phosphorylation, recombinant LRRK2 is incubated with 6 μCi of 32P-ATP (3000 Ci/mmol), 200 μM Irrktide, 10 μM ATP and compound or solvent per 40 μl reaction for 30 minutes at 30° C. Compounds are tested at concentrations ranging from […]; the final amount of DMSO in the kinase reaction is 1%. Reactions are stopped and spotted to P81 phosphocellulose paper and washed 4×10 minutes in 75 mM phosphoric acid. Lrrktide phosphorylation levels are measured via autoradiography. Kinase assays are performed for each condition in triplicate.
(§4) LRRKtide phosphorylation levels are plotted vs. the log of the compound concentration and inhibition curves are fitted from which IC50 values are derived.
`O=C(C1CC1)N1CCNc2ccn3ncc(c3n2)-c2cccc(c2)OCC1` [Example 1] gave an IC50 of less than 100 nM. On the same count and under the same terms, the same measure for `O=C(CCO)N1CCNc2ccn3ncc(c3n2)-c2cccc(c2)OCC1` [Example 4]: less than 100 nM.

The target in a further data set is T2, truncated LRRK2-G2019S (GST tagged LRRK2-G2019S of amino acids 970-2527) (Homo sapiens, UniProt Q5S007, G2019S).
T2 construct: GST tagged LRRK2-G2019S of amino acids 970-2527; GST
T2 sequence (Q5S007 970-2527 G2019S): as the sequence (Q5S007 970-2527) above, with G1050S counted along it
Kind of data set: LRRKtide 32P-ATP peptide kinase assay (Protocol 1), truncated LRRK2-G2019S. It counts as biochemical. The following applies: 10 μM ATP, 200 μM lrrktide. The method, then: as §1, §2, §3, §4
In turn, `O=C(C1CC1)N1CCNc2ccn3ncc(c3n2)-c2cccc(c2)OCC1` [Example 1] gave an IC50 of less than 100 nM.

Take `O=C(CCO)N1CCNc2ccn3ncc(c3n2)-c2cccc(c2)OCC1` [Example 4]: the IC50 was less than 100 nM.

System in a further data set: not given
Assay: not given
The following applies: from COC(=O)c1cc(O)cc(-c2cnn3ccc(N(CCN(CCO)C(=O)OC(C)(C)C)C(=O)OC(C)(C)C)nc23)c1; ether bond; DIAD/PPh3; toluene; 8.7 mM; 90.0 °C; 3.5 h.
For the compound `COC(=O)c1cc2cc(c1)-c1cnn3ccc(nc13)N(C(=O)OC(C)(C)C)CCN(C(=O)OC(C)(C)C)CCO2`, the ring closure, yield of all isomers turned out to be 89%.

Staying with this data set, now noted: from NCCOc1cc(F)cc(-c2cnn3ccc(NCCC(=O)O)nc23)c1; amide bond; HBTU/DIPEA; DMF; 28.6 mM; 25.0 °C; 1.0 h.
Regarding `O=C1CCNc2ccn3ncc(c3n2)-c2cc(F)cc(c2)OCCN1`, the ring closure, yield of all isomers was 18%.

System in a further data set: not given
Assay: not given
Details: not given
`NC(=O)c1cc2cc(c1)-c1cnn3ccc(nc13)NCCN(C(=O)C1CC1)CCO2` [Compound 69] had a melting point of more than 300 °C.

For `O=C(C1CC1)N1CCNc2ccn3ncc(c3n2)-c2cccc(c2)OCC1` [Example 1], the melting point was more than 300 °C. Still for that read-out and setting: the same measure for `C=CC(=O)N1CCNc2ccn3ncc(c3n2)-c2cccc(c2)OCC1` [Compound 70]: more than 300 °C; for `CCC(=O)N1CCNc2ccn3ncc(c3n2)-c2cccc(c2)N(C)CC1` [Compound 71]: more than 300 °C; for `O=C1CCC(=O)Nc2cccc(c2)-c2cnn3ccc(nc23)OCCCN1` [Compound 68]: 295.1 °C.

Compound `O=C(CCO)N1CCNc2ccn3ncc(c3n2)-c2cccc(c2)OCC1` [Example 4] displayed a melting point of more than 300 °C.

On to `O=S1(=O)CCCOc2cccc(c2)-c2cnn3ccc(nc23)NCCN1` [Example 8], for which the melting point amounted to 269 °C.

Another data set has as its target T3, truncated LRRK2 (Homo sapiens, UniProt Q5S007).
T3 construct: a truncated LRRK2 enzyme (GST tagged LRRK2 of amino acids 970-2527); GST; purchased Invitrogen Corporation
Kind of data set: radiometric protein kinase assay (33PanQinase Activity Assay, Protocol 2), truncated LRRK2. It counts as biochemical.
Details: not given
The method, then: as §1
A radiometric protein kinase assay (^33PanQinase® Activity Assay) is used for measuring the kinase activity. All assays are performed in 96-well FlashPlates™ from Perkin Elmer in a 50 μl reaction volume. The reaction cocktail is pipetted in 4 steps in the following order: • 10 μl of non-radioactive ATP solution (in H2O) • 25 μl of assay buffer/[γ-^33P]-ATP mixture • 5 μl of test sample in 10% DMSO • 10 μl of enzyme/substrate mixture
The kinase is obtained from Invitrogen Corporation.
The reaction cocktails were incubated at 30° C. for 60 minutes. The reaction was stopped with 50 μl of 2% (v/v) H3PO4, plates were aspirated and washed two times with 200 μl 0.9% (w/v) NaCl. Incorporation of ^33Pi (counting of “cpm”) was determined with a microplate scintillation counter.
The compound `O=C(CF)N1CCNc2ccn3ncc(c3n2)-c2cccc(c2)OCC1` [Example 50] had an IC50 of less than 100 nM.

Staying with this data set, now noted: Protocol 2; ATP 0.3 μM, substrate GSK3(14-27); read-out: IC50 for truncated LRRK2.
Regarding `O=C1CN(C(=O)C2CC2)CCNc2ccn3ncc(c3n2)-c2cccc(c2)N1` [Compound 67], the IC50 was more than 1000 nM. As for `O=C(CN1CCOCC1)N1CCNc2ccn3ncc(c3n2)-c2cccc(c2)OCC1` [Example 36], the IC50 fell in the range of 100 to 1000 nM. The same measure, in the same setting: the same measure for `NC(=O)c1cc2cc(c1)-c1cnn3ccc(nc13)NCCN(C(=O)C1CC1)CCO2` [Compound 69]: more than 1000 nM; for `N#Cc1ccc2cc1OCCN(C(=O)C1CC1)CCNc1ccn3ncc-2c3n1` [Example 42]: less than 100 nM.

Consider `O=C(C1CC1)N1CCNc2cccc(c2)-c2cnn3ccc(nc23)NCC1` [Example 35], for which the IC50 was less than 100 nM. Still for that read-out and setting: the same measure for `CN(C)CCC(=O)N1CCNc2ccn3ncc(c3n2)-c2cccc(c2)OCC1` [Example 41]: less than 100 nM; for `COCCC(=O)N1CCNc2ccn3ncc(c3n2)-c2cccc(c2)OCC1` [Example 31]: 100 to 1000 nM; for `CC(C)C(=O)N1CCNCc2cccc(c2)-c2cnn3ccc(nc23)NCC1` [Compound 53]: more than 1000 nM.

Take `COc1ccc2cc1OCCN(C(=O)C1CC1)CCNc1ccn3ncc-2c3n1` [Compound 66]: the IC50 was 100 to 1000 nM. Same read-out and setting: the same measure for `O=C1NCCN(C(=O)C2CC2)CCNc2ccn3ncc(c3n2)-c2cccc1c2` [Example 45]: 100 to 1000 nM; for `CN(C)CCC(=O)N1CCNCc2cccc(c2)-c2cnn3ccc(nc23)NCC1` [Compound 56]: more than 1000 nM. The same measure, in the same setting: the same measure for `C=CC(=O)N1CCNc2ccn3ncc(c3n2)-c2cccc(c2)OCC1` [Compound 70]: less than 100 nM.

As to `O=C(c1ccc[nH]1)N1CCNc2ccn3ncc(c3n2)-c2cccc(c2)OCC1` [Example 32], the IC50 was less than 100 nM.

For the compound `O=C1CCCNc2ccn3ncc(c3n2)-c2cccc(c2)OCCCN1` [Example 43], the IC50 was 100 to 1000 nM. The same measure, in the same setting: the same measure for `CN1CCC(=O)NCCNc2ccn3ncc(c3n2)-c2cccc(c2)C1` [Compound 60]: less than 100 nM. Take `CCOC(=O)N1CCCNc2ccn3ncc(c3n2)-c2cccc(c2)OCC1` [Example 12]: the IC50 fell in the range of 100 to 1000 nM. Same read-out and setting: the same measure for `CN1CCNc2ccn3ncc(c3n2)-c2cccc(c2)OCCCS1(=O)=O` [Example 47]: 100 to 1000 nM.

As to `CN1CC(=O)NCCNc2ccn3ncc(c3n2)-c2cccc1c2` [Compound 61], the IC50 was more than 1000 nM.

With `CN(C)CCN1CCN(C(=O)C2CC2)CCOc2cccc(c2)-c2cnn3ccc1nc23` [Example 48], the IC50 fell in the range of 100 to 1000 nM.

`C[C@H]1NCc2cccc(c2)-c2cnn3ccc(nc23)NCCNC1=O` [Compound 62]: the IC50 was more than 1000 nM. The same measure, in the same setting: the same measure for `NC(=O)N1CCNc2ccn3ncc(c3n2)-c2cccc(c2)OCC1` [Example 38]: less than 100 nM; for `O=C1CNc2ccn3ncc(c3n2)-c2cccc(c2)OCCCN1` [Compound 57]: more than 1000 nM; for `O=C(c1cocn1)N1CCNc2ccn3ncc(c3n2)-c2cccc(c2)OCC1` [Example 33]: less than 100 nM. Regarding `COCCC(=O)N1CCCN(C)c2cccc(c2)-c2cnn3ccc(nc23)NCC1` [Example 19], the IC50 was in the range of 100 to 1000 nM.

With `CCCC(=O)N1CCNCc2cccc(c2)-c2cnn3ccc(nc23)NCC1` [Compound 55], the IC50 was more than 1000 nM. In the case of `O=C(CCN1CCCC1)N1CCNc2ccn3ncc(c3n2)-c2cccc(c2)OCC1` [Example 40], the IC50 is less than 100 nM. On the same count and under the same terms, the same measure for `O=C(N1CCNc2ccn3ncc(c3n2)-c2cccc(c2)OCC1)N1CCN(CCF)CC1` [Example 29]: 100 to 1000 nM; for `COCCC(=O)N1CCNCc2cccc(c2)-c2cnn3ccc(nc23)NCC1` [Compound 54]: 100 to 1000 nM. Still for that read-out and setting: the same measure for `O=C(CCF)N1CCNc2ccn3ncc(c3n2)-c2cccc(c2)OCC1` [Example 10]: less than 100 nM; for `CNCC(=O)N1CCNc2ccn3ncc(c3n2)-c2cccc(c2)OCC1` [Example 37]: less than 100 nM; for `CN1CCCOc2cccc(c2)-c2cnn3ccc(nc23)NCCCC1=O` [Compound 65]: more than 1000 nM. Still for that read-out and setting: the same measure for `CN(C)CCN1CCN(C)c2ccn3ncc(c3n2)-c2cccc(c2)OCC1=O` [Compound 58]: more than 1000 nM.

Turning to `C[C@@H]1NCc2cccc(c2)-c2cnn3ccc(nc23)NCCNC1=O` [Compound 64], the IC50 is more than 1000 nM.

On to `CC(C)N1CCNc2ccn3ncc(c3n2)-c2cccc(c2)OCC1=O` [Example 44], for which the IC50 was more than 1000 nM.

In the case of `CN(C)CCN1CCNc2ccn3ncc(c3n2)-c2cccc(c2)OCC1=O` [Example 46], the IC50 is more than 1000 nM.

With `CN(C)C(=O)N1CCNc2ccn3ncc(c3n2)-c2cccc(c2)OCC1` [Example 11], the IC50 is less than 100 nM.

Take `CCC(=O)N1CCNc2cccc(c2)-c2cnn3ccc(nc23)NCC1` [Example 17]: the IC50 is less than 100 nM. The same measure, in the same setting: the same measure for `O=C1CNc2cccc(c2)-c2cnn3ccc(nc23)NCCN1` [Example 49]: 100 to 1000 nM. Same read-out and setting: the same measure for `O=C1CCC(=O)Nc2cccc(c2)-c2cnn3ccc(nc23)OCCCN1` [Compound 68]: more than 1000 nM; for `NC(=O)CN1CCNc2ccn3ncc(c3n2)-c2cccc(c2)OCC1` [Example 13]: less than 100 nM.

For the compound `O=C(C1CC1)N1CCOc2cccc(c2)-c2cnn3ccc(nc23)N(CCO)CC1` [Compound 63], the IC50 lay in the range of 100 to 1000 nM.

Regarding `CN1CCN(CC(=O)N2CCNc3ccn4ncc(c4n3)-c3cccc(c3)OCC2)CC1` [Example 39], the IC50 fell in the range of 100 to 1000 nM. Still for that read-out and setting: the same measure for `CS(=O)(=O)N1CCNc2ccn3ncc(c3n2)-c2cccc(c2)OCC1` [Example 14]: 100 to 1000 nM; for `CC(=O)N1CCNCc2cccc(c2)-c2cnn3ccc(nc23)NCC1` [Example 52]: 100 to 1000 nM; for `O=S(=O)(C1CC1)N1CCNc2ccn3ncc(c3n2)-c2cccc(c2)OCC1` [Example 34]: 100 to 1000 nM.

For the compound `O=C(C1CC1)N1CCNCc2cccc(c2)-c2cnn3ccc(nc23)NCC1` [Example 51], the IC50 is 100 to 1000 nM.

Consider `O=C1CCNCc2cccc(c2)-c2cnn3ccc(nc23)NCCN1` [Compound 59], for which the IC50 is more than 1000 nM.
